From patent publication US6121241A, “Anticoagulant peptide aldehyde derivatives” (Gyogyszerkutato Intezet Kft., priority 1996, dated 2000)
pIC50: −log10 of the molar value. Read-outs that look alike come from different tables or passages of the source.

Key:
human factor Xa = target: T1, human factor Xa (Homo sapiens, UniProt P00742); experiment: Inhibition of the amidolytic effect of factor Xa in solution on Bz-Ile-Glu-Gly-Arg-pNA (method M6); format: biochemical; settings: Table 2; Bz-Ile-Glu-Gly-Arg-pNA, isolated human factor Xa; read-out: B: IC50 (factor Xa inhibiting effect)
T1 construct: purchased SIGMA
Method: (§1) Anticoagutant activity (i.e. inhibition of the proteolytic reactions in the process) is measured by anticoagulant tests, e.g. by the thrombin time (TT), activated partial thromboplastin time (APTT) and prothrombin time (PT) tests [E. J. W. Bovie et al; Mayo Clinic Laboratory Manual of Hemostasis; W. B. Sanuders Co., Philadelphia (1971)]. Plasma, inhibited in spontaneous coagulation, e.g. citrate-plasma, is made to coagulate and the required coagulation time is measured. Upon the action of anticoagulants the coagulation time is prolonged proportionally to the inhibition of the reaction(s) in the process. The anticoagulant effect can be characterized by the substance concentration required to double the coagulation time compared to the control (IC50). The effect of anticoagulants on individual coagulant proteases is measured by the amidolytic method [R. Lottenberg et al., Methods in Enzymol. 80, 341 (1981); G. Cleason, Blood Coagulation and Fibrinolysis 5, 411 (1994)]. The isolated active factor (e.g. thrombin, fXa) and its chromogen or fluorogen peptide-amide substrate are reacted in the presence or absence of the inhibitor, resp. The enzyme inhibiting action is characterized by the inhibitory constant (IC50) measured during amidolysis.
(§2) The in vitro anticoagulant effect of the compounds of general formula (I) was measured by the prothrombin time (PT), activated partial thromboplastin time (APTT) and thrombin time (TT) tests [D. Bagdy et at., Thromb. Haemost. 67, 325 (1992)]. The Xa-factor-inhibiting effect of the compounds was also determined by using the Bz-Ile-Glu-Gly-Arg-pNA chromogen substrate (see method M6).
Assay of the Inhibition of Factor Xa in Solution on a 96-well Microtiter Plate
a) 1.3 U/mL factor Xa (human, SIGMA), 0.1-1.0-10 and 100 μg/mL solutions in phosphate buffer (0.1 M sodium phosphate and 0.05 M sodium chloride, pH 7.4) of the peptide inhibitors and […] solutions of the substrate Bz-Ile-Glu-Gly-Arg-pNA in distilled water are used.
b) Three reaction mixtures are prepared from the control and each peptide solution. 30 μL each of the peptide and the buffer, serving as control, 30 μL factor Xa, 90 μL butter and 150 μL substrate are placed in the wells of the plate, then after 10 minutes the extinction values are read at 405 nm The procedure is continued as described in Method M2, point c).

[1] = test system: citrate plasma coagulation (PT); experiment: Prothrombin time (PT) plasma clotting test; format: biochemical
Method: as §1
(§3) In the TT test coagulation is initiated by the thrombin added to the citrate plasma. In the system 22 pmol/mL of thrombin is functioning and in the presence of plasma components its inhibition can be measured on the fibrinogen (one of the natural substrates of thrombin) present In the APTT and PT tests the full coagulation process is made to proceed. Depending on the activator fX is activated by the extrinsic or intrinsic pathway. The generated fXa activates prothrombin to thrombin which, in turn, triggers plasma coagulation. In the test the coagulation time is prolonged if the enzymes or one of them is inhibited by the inhibitor. In the APTT and PT tests at most 40 pmole/ml Xa is generated (this is the full amount of factor X present in both systems) while 150 pmole/ml (APTT) and 350 pmole/ml (PT) are generated from thrombin [B Kaiser et al., Thromb. Res. 65, 157 (1992)].
as §2

[2] = test system: citrate plasma coagulation (APTT); experiment: Activated partial thromboplastin time (APTT) plasma clotting test; format: biochemical
Method: as §1, §3, §2

[3] = target: T2, fibrin-gel bound thrombin (Homo sapiens, UniProt P00734); experiment: Inhibition of thrombin bound to fibrin-gel (methods M4, M5); format: biochemical; settings: Tos-Gly-Pro-Arg-pNA substrate
T2 construct: Here prothrombin is converted to thrombin; purchased SIGMA
Method: The plasma clot was obtained by the recalcification of platelet-rich human citrate plasma and fibrin gel by the coagulation of human fibrinogen with human thrombin Z-D-Arg-Gly-Arg-pNA and Tos Gly-Pro-Arg-pNA were used as substrates for measuring the activity of factor Xa and thrombin (methods M1-M5).
Preparation of Fibrin-Gel
a) 200 μL of 6 mg/mL human fibrinogen (SIGMA), 25 μL of 25 NIH U/mL human thrombin (SIGMA) and 40 μL of 100 mM calcium chloride solution are placed in each reaction vessel and the mixtures are stored for one hour at 20-22° C. The fibrin formed is rinsed mildly with 3×2 ml of isotonic saline solution followed by sedimentation to remove the thrombin content of the solution. The efficacy of rinsing is controlled by the process described in Method M1, point c).
Assay of the Inhibition of Thrombin Bound to Fibrin-Gel
a) 0.1-1.0-10 and 100 μg/ml solutions are prepared with Hepes/NaCl buffer (0.01 M Hepes and 0.1 M sodium chloride, pH=7.4).
b) Thereafter the procedure described in Method M3, point b) is followed.

[4] = test system: activated partial thromboplastin time (APTT); experiment: Ex vivo APTT in citrate plasma of rabbits after p.o. dosing; set-up: species or system New Zealand white rabbits; settings: p.o. 5 mg/kg
Method: The anticoagulant and platelet aggregation inhibiting effect of the compounds of general formula (I) was studied In New Zealand white rabbits ex vivo according to D. Bagdy et al [Thromb. Haemost 67. 357 (1992). The compounds were dissolved in buffered isotonic saline solution and administered i.v. (0,04-5.0 mg/kg) or by infusion (0.25-5.0 mg/kg/h) or subcutaneously (0.5-6.0 mg/kg) or p.o. (2.5-20 mg/kg). The effect of the compounds was detectable already within 30 minutes following p.o. administration, peak values were attained after 60-180 minutes and the therapeutic level was maintained dose-dependently for 3→6 hours.
The in vivo effect of D-cHga Pro-Arg-H (1) is presented in detail in Tables 5 and 6. The corresponding values of C1 are listed as controls. The compound was administered p.o. in doses of 5 mg/kg. The blood samples drawn from the caudal vein in every 30-60 minutes were analyzed. The whole blood clotting time (WBCT) and the inhibition of thrombin-induced blood platelet aggregation (PAI) were determined. The activated partial thromboplastin time (APTT) and the thrombin time (TT) in the citrate plasma obtained from the blood sample were also measured. The APTT and TT values are compiled in Table 5 and the WBCT and PAI values in Table 6.

[5] = Table 2, concentration doubling clotting time, read-out: A: IC50, PT

T1 sequence (P00742 235-488 limits assumed): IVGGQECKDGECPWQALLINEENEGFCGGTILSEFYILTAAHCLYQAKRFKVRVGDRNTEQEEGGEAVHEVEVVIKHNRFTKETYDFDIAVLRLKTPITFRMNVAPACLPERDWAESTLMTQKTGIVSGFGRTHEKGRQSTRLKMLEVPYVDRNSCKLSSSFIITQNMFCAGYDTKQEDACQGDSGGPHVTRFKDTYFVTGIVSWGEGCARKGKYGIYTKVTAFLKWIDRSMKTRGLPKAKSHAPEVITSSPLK
T1 sequence (P00742 41-179 partner limits assumed): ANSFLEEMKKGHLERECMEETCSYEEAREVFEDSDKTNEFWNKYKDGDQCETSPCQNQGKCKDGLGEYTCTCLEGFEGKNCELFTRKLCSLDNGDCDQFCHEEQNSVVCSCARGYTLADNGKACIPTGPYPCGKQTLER

Structure (SMILES)	pIC50 (human factor Xa)	pIC50 [1, 5]	pIC50 ([2]; Table 2, concentration doubling clotting time, read-out: A: IC50, APTT)	pIC50 [3]	APTT relative clotting time ([4]; 0 min)	APTT relative clotting time ([4]; 30 min)	APTT relative clotting time ([4]; 45 min)	APTT relative clotting time ([4]; 60 min)	APTT relative clotting time ([4]; 90 min)	APTT relative clotting time ([4]; 120 min)	APTT relative clotting time ([4]; 180 min)	APTT relative clotting time ([4]; 240 min)	APTT relative clotting time ([4]; 300 min)	pIC50 ([1]; read-out: concentration doubling the clotting time in the PT test)	pIC50 ([2]; read-out: concentration doubling the clotting time in the APTT test)
N=C(N)NCCC[C@@H](C=O)NC(=O)[C@H]1CCCN1C(=O)C(O)C1CCCCCC1.N=C(N)NCCC[C@@H](C=O)NC(=O)[C@H]1CCCN1C(=O)C(O)C1CCCCCC1.O=S(=O)(O)O (stereo partly drawn) [Compound 1, D-2-Cycloheptyl-2-hydroxyacetyl-L-prolyl-L-arginine aldehyde hemisulfate]	7.20	5.92	6.43	6.68	1.0	2.01 ± 0.43	2.25 ± 0.43	2.32 ± 0.43	2.11 ± 0.31	1.84 ± 0.11	1.66 ± 0.10	1.37 ± 0.08	1.31 ± 0.09		
CN[C@H](Cc1ccccc1)C(=O)N1CCC[C@H]1C(=O)N[C@H](C=O)CCCNC(=N)N [Compound C1, D-MePhe-Pro-Arg-H]	5.04	5.53		6.52	1.0	1.27 ± 0.38	1.30 ± 0.02	1.37 ± 0.03	1.45 ± 0.09	1.43 ± 0.11	1.39 ± 0.09	1.31 ± 0.11	1.25 ± 0.22	5.54	6.21
